The structures appear in SMILES notation.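 How tested: cells in 96-well plates exposed to compound for 48 hours at five concentrations. Abbreviation: GI50, concentration required for 50% inhibition of growth. TGI: concentration producing complete growth inhibition.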

One assay deals with SK-MEL-2 melanoma. Description: NCI anticancer screen, dose series, 48 h.
With `Cc1ccc(C(=O)Nc2ccc(CN3CCN(C)CC3)c(C(F)(F)F)c2)cc1C#Cc1cnc(N)c2ccc(F)cc12`, the GI50 was 0.27 µM and the TGI is 1.44 µM.
`CC1(C)CCC(C)(C)c2cc(C(=O)Nc3ccc(C(=O)O)cc3)ccc21`: the TGI came to 44.7 µM.
On the same count and under the same terms, then `Clc1ccccc1NN(Cc1ccccn1)c1ccccc1Cl`, with 32.6 µM; and `Cc1cc2c(C(C)C)c(O)c(O)c(C=Nc3cc(C(F)(F)F)ccc3Cl)c2c(O)c1-c1c(C)cc2c(C(C)C)c(O)c(O)c(C=Nc3cc(C(F)(F)F)ccc3Cl)c2c1O`, with 80.8 µM.
Take `S=C(N/N=C/c1cc(Cl)cc(Cl)c1)NC12CC3CC(CC(C3)C1)C2`: the GI50 is 7.74 µM and the TGI was > 30.3 µM.
`CC(CO)[C@H]1OC(=O)C=C2[C@@]13O[C@@H]3[C@H]1OC(=O)[C@@]3(C)[C@H]4O[C@H]4C[C@@]2(C)[C@@H]13` (stereo not given in full) gave a TGI of 11.1 µM.
For `COc1cc2cc(Oc3ccc(NC(=O)c4cccc(C(F)(F)F)c4)cc3)c(C)nc2cc1OC`, the GI50 is 5.11 µM and the TGI was > 100 µM.
Consider `COc1cc(/C=C2\CN(C)CC3=C2Nc2nc(SC)[nH]c(=O)c2C3c2cc(OC)c(OC)c(OC)c2)cc(OC)c1OC` (stereo not given), for which the GI50 is 9.92 µM and the TGI is 33.3 µM.
As for `Cc1nc(SCC(N)=O)c2sc(=S)n(-c3ccccc3)c2n1`, the TGI was > 10 µM.
Consider `COc1cc(-c2oc3ccccc3c(=O)c2O)cc(OC)c1OC`, for which the TGI was > 100 µM.

The next assay relates to OVCAR-8 ovarian. The assay is described as follows: NCI anticancer screen, dose series, 48 h.
Regarding `O=C(Nc1ccc(OC(F)(F)F)cc1)c1sccc1NCc1ccnc2ccccc12`, the GI50 is 4.18 µM and the TGI is > 56.4 µM.
Turning to `CCN(CC)c1ccc(NC(=S)NN(C)C)cc1`, the TGI was > 10 µM.
With `Nc1cc(N)c2nc(-c3ccccc3)c(Oc3ccc(F)cc3)nc2c1`, the GI50 was 22.5 µM and the TGI came to 47.4 µM.
The corresponding values for `COc1ccc(-c2cc(-c3ccc(Cl)cc3)c(C#N)c(=O)n2CCCCC(=O)Nc2ccccc2N)cc1` are 4.7 µM and > 100 µM.
As for `CCOC(=O)c1c(NC(=O)c2ccc(C(C)C)cc2)sc2c(CN(C)C)c(O)ccc12`, the GI50 is 3.56 µM and the TGI came to 16.3 µM.
The corresponding values for `COc1ccc(C(=O)N2c3ccccc3Sc3ccccc32)c(F)c1` are 2.2 µM and > 100 µM.
For the compound `CC1(C)N=C(N)N=C(N)N1c1ccc(CCc2ccccc2)c(Cl)c1`, the GI50 is 0.0897 µM and the TGI was found to be 13.6 µM.
The like results for `Cc1ccc(C(=O)Nc2ccc(CN3CCN(C)CC3)c(C(F)(F)F)c2)cc1C#Cc1cnc(N)c2ccc(F)cc12` were, in that order, 0.297 µM and 2.37 µM.
Regarding `CC1(C)CCC(C)(C)c2cc(C(=O)Nc3ccc(C(=O)O)cc3)ccc21`, the TGI was > 88.5 µM.
The same measure, in the same setting: for `Clc1ccccc1NN(Cc1ccccn1)c1ccccc1Cl` the value was 39.9 µM.
For the compound `Cc1cc2c(C(C)C)c(O)c(O)c(C=Nc3cc(C(F)(F)F)ccc3Cl)c2c(O)c1-c1c(C)cc2c(C(C)C)c(O)c(O)c(C=Nc3cc(C(F)(F)F)ccc3Cl)c2c1O`, the TGI was > 100 µM.
In the case of `S=C(N/N=C/c1cc(Cl)cc(Cl)c1)NC12CC3CC(CC(C3)C1)C2`, the GI50 is 4.87 µM and the TGI is > 100 µM.
Compound `CC(CO)[C@H]1OC(=O)C=C2[C@@]13O[C@@H]3[C@H]1OC(=O)[C@@]3(C)[C@H]4O[C@H]4C[C@@]2(C)[C@@H]13` (stereo not given in full) registered a TGI of 9.02 µM.
Turning to `COc1cc2cc(Oc3ccc(NC(=O)c4cccc(C(F)(F)F)c4)cc3)c(C)nc2cc1OC`, the GI50 is 6.91 µM and the TGI is > 100 µM.
Take `COc1cc(/C=C2\CN(C)CC3=C2Nc2nc(SC)[nH]c(=O)c2C3c2cc(OC)c(OC)c(OC)c2)cc(OC)c1OC` (stereo not given): the GI50 was 2.89 µM and the TGI is > 100 µM.
For `Cc1nc(SCC(N)=O)c2sc(=S)n(-c3ccccc3)c2n1`, the TGI was > 10 µM.
As for `COc1cc(-c2oc3ccccc3c(=O)c2O)cc(OC)c1OC`, the TGI is > 100 µM.

The next assay deals with M14 melanoma. Description: NCI anticancer screen, dose series, 48 h.
Regarding `O=C(Nc1ccc(OC(F)(F)F)cc1)c1sccc1NCc1ccnc2ccccc12`, the GI50 was 2.74 µM and the TGI was 30.6 µM.
In the case of `CCN(CC)c1ccc(NC(=S)NN(C)C)cc1`, the TGI is > 10 µM.
Consider `Nc1cc(N)c2nc(-c3ccccc3)c(Oc3ccc(F)cc3)nc2c1`, for which the GI50 was 17.1 µM and the TGI amounted to 45 µM.
Turning to `COc1ccc(-c2cc(-c3ccc(Cl)cc3)c(C#N)c(=O)n2CCCCC(=O)Nc2ccccc2N)cc1`, the GI50 is 2.58 µM and the TGI was 8.14 µM.
For `CCOC(=O)c1c(NC(=O)c2ccc(C(C)C)cc2)sc2c(CN(C)C)c(O)ccc12`, the GI50 was 1.77 µM and the TGI turned out to be 3.48 µM.
Consider `COc1ccc(C(=O)N2c3ccccc3Sc3ccccc32)c(F)c1`, for which the GI50 was 0.371 µM and the TGI was > 100 µM.
The corresponding values for `CC1(C)N=C(N)N=C(N)N1c1ccc(CCc2ccccc2)c(Cl)c1` are 0.124 µM and 13.7 µM.
On to `Cc1ccc(C(=O)Nc2ccc(CN3CCN(C)CC3)c(C(F)(F)F)c2)cc1C#Cc1cnc(N)c2ccc(F)cc12`, for which the GI50 is 0.0881 µM and the TGI amounted to 0.441 µM.
`CC1(C)CCC(C)(C)c2cc(C(=O)Nc3ccc(C(=O)O)cc3)ccc21` showed a TGI of 51.1 µM.
Same read-out and setting: for `Clc1ccccc1NN(Cc1ccccn1)c1ccccc1Cl` the value was 38.3 µM.
Same read-out and setting: then `Cc1cc2c(C(C)C)c(O)c(O)c(C=Nc3cc(C(F)(F)F)ccc3Cl)c2c(O)c1-c1c(C)cc2c(C(C)C)c(O)c(O)c(C=Nc3cc(C(F)(F)F)ccc3Cl)c2c1O`, with > 100 µM.
With `S=C(N/N=C/c1cc(Cl)cc(Cl)c1)NC12CC3CC(CC(C3)C1)C2`, the GI50 is 65 µM and the TGI is > 100 µM.
For `CC(CO)[C@H]1OC(=O)C=C2[C@@]13O[C@@H]3[C@H]1OC(=O)[C@@]3(C)[C@H]4O[C@H]4C[C@@]2(C)[C@@H]13` (stereo not given in full), the TGI is > 22.8 µM.
For `COc1cc2cc(Oc3ccc(NC(=O)c4cccc(C(F)(F)F)c4)cc3)c(C)nc2cc1OC`, the GI50 is 4.02 µM and the TGI was > 100 µM.
Consider `COc1cc(/C=C2\CN(C)CC3=C2Nc2nc(SC)[nH]c(=O)c2C3c2cc(OC)c(OC)c(OC)c2)cc(OC)c1OC` (stereo not given), for which the GI50 was 2.98 µM and the TGI was determined as 9.44 µM.
As for `Cc1nc(SCC(N)=O)c2sc(=S)n(-c3ccccc3)c2n1`, the TGI was > 10 µM.
Same read-out and setting: for `COc1cc(-c2oc3ccccc3c(=O)c2O)cc(OC)c1OC` the value was > 100 µM.

The next assay concerns RXF 393 renal. Description: NCI anticancer screen, dose series, 48 h.
As to `O=C(Nc1ccc(OC(F)(F)F)cc1)c1sccc1NCc1ccnc2ccccc12`, the GI50 is 1.8 µM and the TGI was 6.96 µM.
As to `CCN(CC)c1ccc(NC(=S)NN(C)C)cc1`, the TGI was > 10 µM.
As for `Nc1cc(N)c2nc(-c3ccccc3)c(Oc3ccc(F)cc3)nc2c1`, the GI50 is 21.1 µM and the TGI was found to be 46.5 µM.
Consider `COc1ccc(-c2cc(-c3ccc(Cl)cc3)c(C#N)c(=O)n2CCCCC(=O)Nc2ccccc2N)cc1`, for which the GI50 is 1.69 µM and the TGI turned out to be 6.89 µM.
The corresponding values for `CCOC(=O)c1c(NC(=O)c2ccc(C(C)C)cc2)sc2c(CN(C)C)c(O)ccc12` are 1.74 µM and 3.39 µM.
The corresponding values for `COc1ccc(C(=O)N2c3ccccc3Sc3ccccc32)c(F)c1` are 0.764 µM and > 100 µM.
Regarding `CC1(C)N=C(N)N=C(N)N1c1ccc(CCc2ccccc2)c(Cl)c1`, the GI50 is 0.829 µM and the TGI was 17.6 µM.
Take `Cc1ccc(C(=O)Nc2ccc(CN3CCN(C)CC3)c(C(F)(F)F)c2)cc1C#Cc1cnc(N)c2ccc(F)cc12`: the GI50 is 0.218 µM and the TGI was 0.579 µM.
Regarding `CC1(C)CCC(C)(C)c2cc(C(=O)Nc3ccc(C(=O)O)cc3)ccc21`, the TGI was > 42 µM.
Still for that read-out and setting: then `Clc1ccccc1NN(Cc1ccccn1)c1ccccc1Cl`, with 29.2 µM; and `Cc1cc2c(C(C)C)c(O)c(O)c(C=Nc3cc(C(F)(F)F)ccc3Cl)c2c(O)c1-c1c(C)cc2c(C(C)C)c(O)c(O)c(C=Nc3cc(C(F)(F)F)ccc3Cl)c2c1O`, with 97.7 µM.
As to `S=C(N/N=C/c1cc(Cl)cc(Cl)c1)NC12CC3CC(CC(C3)C1)C2`, the GI50 is 4.19 µM and the TGI is > 37.2 µM.
With `CC(CO)[C@H]1OC(=O)C=C2[C@@]13O[C@@H]3[C@H]1OC(=O)[C@@]3(C)[C@H]4O[C@H]4C[C@@]2(C)[C@@H]13` (stereo not given in full), the TGI amounted to 6.33 µM.
Take `COc1cc2cc(Oc3ccc(NC(=O)c4cccc(C(F)(F)F)c4)cc3)c(C)nc2cc1OC`: the GI50 was 6.07 µM and the TGI was > 100 µM.
The like results for `COc1cc(/C=C2\CN(C)CC3=C2Nc2nc(SC)[nH]c(=O)c2C3c2cc(OC)c(OC)c(OC)c2)cc(OC)c1OC` (stereo not given) were, in that order, 1.81 µM and 3.45 µM.
Consider `Cc1nc(SCC(N)=O)c2sc(=S)n(-c3ccccc3)c2n1`, for which the TGI is > 10 µM.
On the same count and under the same terms, for `COc1cc(-c2oc3ccccc3c(=O)c2O)cc(OC)c1OC` the value was 42.6 µM.

The values are drawn from PubChem BioAssay (NCI).
